The source of these data is patent US20230398130A1, “METHODS AND COMPOSITIONS FOR DIFFERENTIATING STEM CELLS” (Massachusetts Institute of Technology, priority 2020, published 2023).

The subject of experiment [1] is ISC-enriched organoids. Description: Secondary (validation) screen, 384-well 2.5-D, ENR+CD 6 days, n=8 wells, vs ENR+CD+DMSO control: ATP (CTG). Type of experiment: cell-based, murine. How it is done: (§1) Drugs were tested at a narrowed dose range around each treatment's identified optimal dose from the primary screen (4× below, 2× above and below).
(§2) High-throughput screening.
(§3) Secondary lysozyme secretion assay screen. Confirmatory secondary screening with primary hits was performed using the above 384-well plate method. The screen was conducted with 4-plate replicates with a base media of ENR+CD. Media was supplemented with compound at day 0 and day 3 (n=8 well replicates per dose) at four different doses: two-fold above, two-fold below, and four-fold below the optimal final dose for each respective treatment. Additionally, each plate carried a large number of ENR+DMSO or ENR+CD+DMSO (vehicle) control wells (n=100 for ATP, and n=25 for LYZ.NS and LYZ.S) for robust normalization. ATP, non-stimulated lysozyme activity and CCh-stimulated lysozyme activity was again measured and the collected data was again processed in a custom R-script, per primary screen with slight modification. Values were log10 transformed, and a plate-wise FC was calculated for each well based on the median value of ENR+CD+DMSO (vehicle) control wells to normalize plate to plate variability.

In experiment [2] the test system is ISC-enriched organoids. Put plainly: Secondary (validation) screen, 384-well 2.5-D, ENR+CD 6 days, n=8 wells, vs ENR+CD+DMSO control: basal lysozyme secretion (LYZ.NS). The class given is cell-based, murine. How it is done:
as §1, §2, §3

For experiment [3], the system named is ISC-enriched organoids. Description: Secondary (validation) screen, 384-well 2.5-D, ENR+CD 6 days, n=8 wells, vs ENR+CD+DMSO control: carbachol-induced lysozyme secretion (LYZ.S). Type of experiment: cell-based, murine. On the procedure:
as §1, §2, §3

The subject of experiment [4] is ISC-enriched organoids. Description: Primary screen, 384-well 2.5-D organoid differentiation (ENR+CD, 6 days, Target Selective Inhibitor Library, vs whole-plate median): ATP (CellTiter-Glo 3D, CTG). Particulars: standard z score of FC. On the technique in general: ATP-based viability assays read luminescence as a measure of living cells.

Molecules are shown by their SMILES.

For `COc1cc(Nc2c(C#N)cnc3cc(OCCCN4CCN(C)CC4)c(OC)cc23)c(Cl)cc1Cl` [Bosutinib (SKI-606), Bosutinib], the Z.CTG in the experiment with ISC-enriched organoids [1] (Dose 0.02 uM) is given as 1.944; in the experiment with ISC-enriched organoids [1] (Dose 0.04 uM) it was 1.254; in the experiment with ISC-enriched organoids [1] (dose 0.08 uM) it was 0.735; in the experiment on ISC-enriched organoids [4] (primary screen, dose 0.08 uM), 1.499; in the experiment on ISC-enriched organoids [4] (primary screen, dose 0.40 uM), 0.720; in the experiment with ISC-enriched organoids [4] (primary screen, dose 2.00 uM), −0.405. In the experiment on ISC-enriched organoids [4] (primary screen, dose 10.00 uM), the Z.CTG was −1.595. For the same compound, the repSSMD.CTG is reported as 1.251 in the experiment with ISC-enriched organoids [1] (Dose 0.02 uM), 0.876 in the experiment with ISC-enriched organoids [1] (Dose 0.04 uM) and 0.584 with ISC-enriched organoids [1] (dose 0.08 uM). The Z.LYZ.NS is 1.061 with ISC-enriched organoids [2] (Dose 0.02 uM), −0.535 in the experiment on ISC-enriched organoids [2] (Dose 0.04 uM) and −0.562 in the experiment with ISC-enriched organoids [2] (dose 0.08 uM). Moreover, the values for the repSSMD.LYZ.NS in the experiment on ISC-enriched organoids [2] (Dose 0.02 uM), with ISC-enriched organoids [2] (Dose 0.04 uM) and in the experiment on ISC-enriched organoids [2] (dose 0.08 uM) were 1.620, −0.666 and −0.903, respectively. Moreover, the values for the repSSMD.LYZ.S in the experiment on ISC-enriched organoids [3] (Dose 0.02 uM), in the experiment with ISC-enriched organoids [3] (Dose 0.04 uM) and in the experiment on ISC-enriched organoids [3] (dose 0.08 uM) were 1.147, −0.977 and −0.892, respectively. In addition, the Z.LYZ.S in the experiment on ISC-enriched organoids [3] (Dose 0.04 uM) is reported as −0.663; in the experiment on ISC-enriched organoids [3] (dose 0.08 uM), −0.554.

For the compound `CCOc1ccc(Cc2cc([C@@H]3O[C@H](CO)[C@@H](O)[C@H](O)[C@H]3O)ccc2Cl)cc1` [Dapagliflozin], the Z.CTG in the experiment with ISC-enriched organoids [1] (Dose 0.02 uM) is 0.770; in the experiment with ISC-enriched organoids [1] (Dose 0.04 uM) it was 1.569; with ISC-enriched organoids [1] (dose 0.08 uM), 1.346; in the experiment with ISC-enriched organoids [4] (Dose 0.08 uM) it was 0.980; with ISC-enriched organoids [4] (Dose 0.40 uM) it was 0.607; with ISC-enriched organoids [4] (Dose 2.00 uM), 0.699. The compound also registered a Z.CTG with ISC-enriched organoids [4] (Dose 10.00 uM) of 0.719. The repSSMD.CTG is listed as 0.643 in the experiment with ISC-enriched organoids [1] (Dose 0.02 uM), 0.979 in the experiment on ISC-enriched organoids [1] (Dose 0.04 uM) and 0.777 in the experiment on ISC-enriched organoids [1] (dose 0.08 uM). Also, the Z.LYZ.NS in the experiment on ISC-enriched organoids [2] (Dose 0.02 uM) is 0.173; in the experiment on ISC-enriched organoids [2] (Dose 0.04 uM), 1.197; in the experiment on ISC-enriched organoids [2] (dose 0.08 uM), 0.462. Besides, the repSSMD.LYZ.NS in the experiment with ISC-enriched organoids [2] (Dose 0.02 uM) is reported as 0.231; in the experiment with ISC-enriched organoids [2] (Dose 0.04 uM), 1.267; with ISC-enriched organoids [2] (dose 0.08 uM) it was 0.537. The Z.LYZ.S is −0.144 in the experiment on ISC-enriched organoids [3] (Dose 0.02 uM), 0.528 with ISC-enriched organoids [3] (Dose 0.04 uM) and 0.530 in the experiment on ISC-enriched organoids [3] (dose 0.08 uM). Moreover, the repSSMD.LYZ.S with ISC-enriched organoids [3] (Dose 0.02 uM) is given as −0.225; in the experiment with ISC-enriched organoids [3] (Dose 0.04 uM), 0.751; in the experiment with ISC-enriched organoids [3] (dose 0.08 uM) it was 0.879.

Consider `CCc1c(C(=O)C(N)=O)c2c(OCC(=O)O)cccc2n1Cc1ccccc1` [Varespladib (LY315920), Varespladib], for which the Z.CTG was 0.244 in the experiment on ISC-enriched organoids [1] (Dose 0.02 uM), 1.019 in the experiment on ISC-enriched organoids [1] (Dose 0.04 uM) and 1.862 with ISC-enriched organoids [1] (dose 0.08 uM). Besides, the values for the repSSMD.CTG in the experiment with ISC-enriched organoids [1] (Dose 0.02 uM), in the experiment on ISC-enriched organoids [1] (Dose 0.04 uM) and with ISC-enriched organoids [1] (dose 0.08 uM) were 0.187, 0.518 and 1.114, respectively. The Z.LYZ.NS in the experiment on ISC-enriched organoids [2] (Dose 0.02 uM) is recorded as −0.723; in the experiment with ISC-enriched organoids [2] (Dose 0.04 uM), 0.123; in the experiment on ISC-enriched organoids [2] (dose 0.08 uM) it was 0.718. Besides, the results for the repSSMD.LYZ.NS with ISC-enriched organoids [2] (Dose 0.02 uM), in the experiment with ISC-enriched organoids [2] (Dose 0.04 uM) and in the experiment on ISC-enriched organoids [2] (dose 0.08 uM) were −0.763, 0.213 and 1.251, respectively. Besides, the Z.LYZ.S is −1.057 in the experiment with ISC-enriched organoids [3] (Dose 0.02 uM), −0.339 with ISC-enriched organoids [3] (Dose 0.04 uM) and 0.497 with ISC-enriched organoids [3] (dose 0.08 uM). The repSSMD.LYZ.S in the experiment on ISC-enriched organoids [3] (Dose 0.02 uM) is reported as −1.652; in the experiment with ISC-enriched organoids [3] (Dose 0.04 uM) it was −0.641; in the experiment on ISC-enriched organoids [3] (dose 0.08 uM) it was 0.838.
